PubChem BioAssay AID1241 (SRMLSC, 2008)

Test: compounds inducing NF-kB luciferase expression – cell-based, SH-SY5Y, dose response (AID 1241)
Settings: SH-SY5Y NF-kB promoter luciferase reporter, fold induction

Row | SMILES | EC50 [nM]
1 | COCCOCCn1c(/C=C/c2ccccc2)nc2ccccc21 | 5780
2 | COc1ccc2c(c1OC)C(=O)OC2Nc1nc(-c2ccc(-c3ccccc3)cc2)cs1 (centres undefined) | 2980
3 | Cc1ccc2nc(-c3ccc(NS(=O)(=O)c4ccc(F)c(F)c4)cc3)sc2c1 | 3620
4 | Cc1ccccc1Nc1nc(N)nc(CSc2ccc(F)cc2)n1 | 6450
5 | Cc1ccccc1Nc1nnc(SCC2CCCCO2)s1 (centres undefined) | 5760
6 | Cc1occc1C(=O)Nc1cccc2ccccc12 | 4620
7 | Cc1cc(N/C=C/C(=O)c2cccs2)ccc1F | 2220
8 | CC(C)(C)c1ccc(C(=O)/C=C2\NC(=O)CS2)cc1 | 1140
9 | O=C(c1ccc(Cl)cc1)c1coc2ccc(O)cc12 | 3200
10 | CN=c1scc(C)n1/N=C/c1ccc2c(c1)OCO2 | 129
11 | Cc1ccc(NC2=Nc3ccccc3CS2)cc1 | 1340
12 | COc1cc(/C=N/N(C)c2ccccc2)ccc1O | 2640
13 | C/C(=N\Nc1nc2ccccc2[nH]1)c1cccs1 | 2800
14 | O=C(CC(Nc1ccc(F)cc1)C(=O)O)c1ccccc1 (centres undefined) | 1500
15 | COc1cccc(NC(=O)Nc2ccc3c(c2)nc(C)n3C)c1 | 9300
16 | CCOc1ccc2cc(C#N)c(SCC(=O)OC)nc2c1 | 14500
17 | Cc1ccc(-c2nnc(SCc3ccccc3F)o2)cc1 | 4630
18 | O=C(O)c1cc(N/N=C/c2ccc3c(c2)OCCO3)ccc1Cl | 26500
19 | CN=c1scc(C)n1/N=C/c1ccc(O)cc1 | 15600
20 | O=C(O)c1ccc2nc(-c3ccccc3)sc2c1 | 1840
21 | CC(C)c1cc(C(=O)Nc2cccc(Cl)c2)no1 | 2420
22 | N#C/C(=C\c1ccc(OCc2ccc(C(=O)O)cc2)cc1)C(=O)N1CCOCC1 | 12100
23 | COc1ccc(-c2csc(NCc3ccco3)n2)cc1 | 3700

Row | SMILES | EC50 [nM]
24 | COC(=O)c1cccc(NC(=O)c2onc3c2CCCC3)c1 | 2040
25 | CSCCNC(=O)c1ccc(C(C)(C)C)cc1 | 5250
26 | Cc1cc2nc(-c3ccc(SCC(=O)Nc4ccc(S(=O)(=O)NC5CC5)cc4)nc3)[nH]c2cc1C | 907
27 | O=C(Nc1ccc2c(c1)OCCO2)NC1CCCCC1 | 18200
28 | COc1ccc(CSc2nc3ccccc3[nH]2)cc1 | 4290
29 | CCC(=O)Nc1nc(-c2ccc3c(c2)OCCO3)cs1 | 4540
30 | Cc1cccc(-c2cc3c(nn2)-c2ccccc2C3=O)c1 | 2600
31 | Oc1ccc(-c2nnc(-c3ccc(O)cc3)nn2)cc1 | 5890
32 | CN1CCN(Cc2cc(COCc3ccccc3)c3cccnc3c2O)CC1 | 11000
33 | CC(C)Oc1cc(O)c2c(=O)c(-c3ccc(O)cc3)coc2c1 | 4520
34 | Cc1ccc(C(=O)Nc2ncc(Cc3ccc(F)cc3)s2)o1 | 6160
35 | Cc1cccc(Nc2nc(-c3cccs3)cs2)n1 | 1220
36 | Nc1ccc(/C=C/C(=O)c2cccs2)cc1 | 8720
37 | Nc1nc(-c2ccc(-c3ccccc3)cc2)cs1 | 2420
38 | O=C(Nc1ccc2c(c1)OCCO2)c1ccc2ccccc2n1 | 1440
39 | c1cnc(SCCOc2ccc3c(c2)CCC3)nc1 | 8800
40 | Cc1ccc(-c2cc(-c3cccs3)[nH]n2)c(O)c1 | 13100
41 | CC1CCN(c2nc3ccc(C(=O)O)cc3s2)CC1 | 389
42 | Nc1nn(-c2cccc(F)n2)cc1-c1ccccc1 | 26000
43 | Cc1cc(C=C2C(=O)c3ccccc3C2=O)c(C)n1C | 2790
44 | Cc1ccc(Cc2cnc(NC(=O)c3ccco3)s2)cc1 | 1340
45 | O=C(Nc1ccc2c(c1)CCC2)c1cccs1 | 6510
46 | Clc1cccc(-c2nnc(-c3ccccc3)o2)c1 | 1670

Row | SMILES | EC50 [nM]
47 | O=C(Nc1ccc2c(c1)CCC2)c1ccccc1 | 1840
48 | Cc1c(C(=O)N2CCc3ccccc32)oc2ccccc12 | 3370
49 | Cc1ccc(N=Cc2sc(O)c3ccccc23)cc1 | 1730
50 | CCOc1ccc(-c2nc(-c3cccnc3)no2)cc1 | 906
51 | C(=N\Nc1nc(-c2ccccc2)cs1)/c1ccco1 | 1700
52 | Clc1cccc(Cl)c1/C=C/c1nc2ccccc2[nH]1 | 1190
53 | COc1ccc(-n2ncc3c(NCC(C)C)ncnc32)cc1 | 1190
54 | O=[N+]([O-])c1ccc(C2Oc3ccccc3C3CC(c4ccccc4)=NN32)s1 (centres undefined) | 12200
55 | COc1ccc(-c2cc(=O)c3cc(OC)ccc3o2)cc1 | 3920
56 | O=C(Nc1ccc(Cl)c(Cl)c1)Nc1ccccc1C(=O)O | 1670
57 | Cc1ccn2cc(-c3cc4ccccc4oc3=O)nc2c1 | 137
58 | c1ccc(N2CCN(c3cnc4ccccc4n3)CC2)cc1 | 1610
59 | Cc1nc(Sc2nnnn2C)c2c3c(sc2n1)CCC3 | 1590
60 | Cc1ccc2nc(-c3sc4nc(C)ccc4c3N)[nH]c2c1 | 765
61 | Cc1ccnc(NC(=O)Nc2cccc(F)c2)c1 | 608
62 | NC(=O)c1ccccc1N/C=C/C(=O)c1ccc(Cl)cc1Cl | 1250
63 | O=C(CSc1ncnc2ccccc12)c1ccco1 | 4150
64 | COc1ccc(/C=C/c2nc(-c3ccccc3O)n[nH]2)cc1 | 2920
65 | CC(=O)Nc1nc2ccc(-c3nc4ccccc4o3)cc2s1 | 1460
66 | O=C(Nc1ccccn1)c1sc2cccc(F)c2c1Cl | 1760
67 | CCNC(=S)NNC(=O)c1cc(-c2ccc(OCC)cc2)nc2ccccc12 | 1080
68 | COc1ccc(N=C(C)C2=C(O)c3ccccc3C2=O)cc1 | 889
69 | COc1ccc(-c2ccc3ccccc3n2)cc1 | 651

Row | SMILES | EC50 [nM]
70 | Cc1ccccc1Nc1nc(N)c2ccccc2n1 | 1990
71 | O=C(Nc1ccc(F)cc1)/C(Cl)=C/c1ccccc1 | 23400
72 | N/C(=N\N=C\c1ccc2c(c1)OCO2)c1nonc1N | 277
73 | Fc1cccc(C2NN=C(c3ccccc3)S2)c1 (centres undefined) | 9650
74 | CCOC(=O)c1c(N)sc(C(=O)Nc2ccc3c(c2)OCO3)c1C | 871
75 | COc1ccc(/C=C2\SC(=O)N(CCNC(=O)C3CC4C=CC3C4)C2=O)cc1 (centres undefined) | 4140
76 | COc1ccc(-c2cn3cc(C)ccc3n2)cc1Br | 327
77 | COc1ccc(/C=N/Nc2cc(OC)ncn2)cc1 | 341
78 | COc1ccc(N2C(=S)NC3N2C(=S)NC3(C)c2ccccc2)cc1 (centres undefined) | 8370
79 | CC(C)c1oc(=O)cc2c1[C@@H](O)[C@H]1OC(=O)[C@@]3(C)C[C@@H](O)[C@@H](O)[C@@]2(C)C13 (some centres undefined) | 4450
80 | O=C(Nc1cccnc1Cl)c1ccc2c(Cl)c3c(nc2c1)CCC3 | 674
81 | N#C/C(=N\Nc1ccccc1[N+](=O)[O-])C(=N)N1CCCCC1 | 6940
82 | Cc1sc(NC(=O)c2ccco2)nc1-c1ccccc1 | 2770
83 | O=C(/C=C\Nc1ccc(Br)cc1)c1cccnc1 | 1150
84 | O=C(COc1ccc(CO)cc1Cl)Nc1ccc(F)cc1 | 1600
85 | Cc1ccc(-c2nc3ccccc3[nH]2)cc1N | 3410
86 | Cc1ccc(-c2cnc3c(Cl)c(C)nn3c2)cc1 | 11500
87 | O=c1c(-c2ccc3c(c2)OCCO3)coc2cc(O)cc(O)c12 | 22700
88 | Cc1cnc(NC(=O)Nc2ccc(Cl)cc2)s1 | 24000
89 | Oc1ccc(/C=N/Nc2cccc3cccnc23)c(O)c1 | 2950
90 | O=C(/C=C/Nc1ccccc1F)c1cccs1 | 413
91 | CC(C)Oc1cccc(C(=O)Nc2ccc(Br)cc2F)c1 | 2460
92 | C(=N\Nc1nc(-c2ccccc2)cs1)/c1cccs1 | 5970

Row | SMILES | EC50 [nM]
93 | CN(c1ccc(O)cc1)c1nc(-c2cccs2)cs1 | 3860
94 | COCC(=O)Nc1nnc(-c2ccc(C(C)(C)C)cc2)s1 | 11000
95 | N#C/C(=N\Nc1ccc(F)cc1)C(=N)N1CCCCCC1 | 2170
96 | Cc1cccc(Nc2nc(-c3ccccn3)cs2)n1 | 1190
97 | COC(=O)c1sc(NC(=O)c2cc3c(s2)CCCC3)nc1C | 13600
98 | Cc1ccsc1C(=O)OCc1csc(-c2ccccc2)n1 | 1540
99 | O=C(O)c1cccc(COc2ccccc2Cl)c1 | 1350
100 | CCCCc1ccc(-c2nc(-c3ccncc3)no2)cc1 | 4140
101 | COc1cccc2sc(N(C)c3ccccc3)nc12 | 2670
102 | CCOC(=O)c1cnc2c(-c3ccccc3)cnn2c1C | 7520
103 | COC(=O)c1sc2nc3c(cc2c1N)CCCC3 | 4060
104 | CC(C)c1ccc(Nc2nc(CC(=O)O)cs2)cc1 | 5810
105 | O=C(/C=C\Nc1ccccc1Br)c1ccc2c(c1)OCO2 | 96
106 | C/C(=N\NC(=O)c1ccc(Br)cc1)c1ccccc1 | 23400
107 | CCCc1cc(C(=O)Nc2nccs2)cs1 | 2620
108 | O=C1/C(=C/c2cccs2)CCc2ccccc21 | 4120
109 | CC(=O)c1cnc2cc(-c3ccc(C)cc3)nn2c1C | 3260
110 | CSc1ccc(/C=C/c2ccc3cccc(O)c3n2)cc1 | 2490
111 | COc1ccc2nc(SCc3ccccc3)nc(C)c2c1 | 6570
112 | COc1ccc2nc(NC(=S)N(C)C)sc2c1 | 24800
113 | Cc1ccc(Nc2nc3ccccc3s2)c(C)c1 | 874
114 | CCOC(=O)c1ccc2nc(NC(=O)c3cccs3)sc2c1 | 1930
115 | COc1ccc(-c2cc(=O)c3cc(O)ccc3o2)cc1 | 6990

Row | SMILES | EC50 [nM]
116 | COc1cccc(-c2noc(-c3cccs3)n2)c1 | 2180
117 | CSc1ccc(/C=N/Nc2ccc(Cl)c(C(=O)O)c2)cc1 | 5910
118 | Cc1ccc(/C=N/Nc2ccc(Cl)c(C(=O)O)c2)s1 | 12800
119 | O=C(c1ccccc1)n1ccc(-c2cnc(-c3ccccc3)s2)n1 | 1490
120 | CCCC(=O)Nc1ccc(C(=O)N/N=C/c2ccc[nH]2)cc1 | 2990
121 | Cn1cccc1C(=O)C(=O)Nc1ccccc1 | 25100
122 | CCc1ccc(C(=O)/C=C/c2cnn(C)c2C)s1 | 7900
123 | N#C/C(=N\Nc1ccc(F)cc1)C(=N)N1CCCCC1 | 2970
124 | c1ccc2sc(NN=C3CCCC3)nc2c1 | 5210
125 | Cc1ccc2nc(-c3ccc(NC(=O)COC(=O)c4ccc(=O)[nH]c4)cc3)sc2c1 | 660
126 | CC(C)(C)c1ccc(C(=O)Nc2cnccn2)cc1 | 1120
127 | N/C(=N\OC(=O)c1cccc(Br)c1)c1ccccc1 | 23200
128 | CCN(CC)c1ccc(/C=N/NC(=S)NC)c(O)c1 | 1980
129 | CCC(C)c1ccc(NC(=O)c2cccs2)cc1 (centres undefined) | 734
130 | Oc1ccccc1-c1cc(-c2ccccc2Cl)[nH]n1 | 1240
131 | Clc1c(CSc2nc3ccccc3o2)nc2ccccn12 | 1960
132 | O=C(Nc1ccc(Cl)cc1)N1CCC(c2ccccc2)C1 (centres undefined) | 10600
133 | Oc1ccc(F)cc1-c1cc(-c2ccc3c(c2)OCCO3)n[nH]1 | 1010
134 | O=C(Nc1nc(-c2ccc3c(c2)OCCO3)cs1)C1CCCC1 | 13700
